“Also recorded” adds a separate entry of the source. *1 amine or outer side, *2 acyl side, *3 side chain or, on linkers, in order; H or OH if unused. Where a SMILES comes first, the peptide text is derived from it. Bridges are numbered along the chain shown (N, C = ends). Roman numbers before positions name the chains, in order. Where no end group is shown, it is not given here. [ ]: non-standard residue; d: D form. Actinocin(9to1) = Cc1c2oc3c(C)ccc(C(=O)[*:1])c3nc-2c(C(=O)[*:2])c(N)c1=O; NMeV = CN[C@H](C(=O)O)C(C)C; Sar = CNCC(=O)O
Key:
Gpr162 mRNA = test system: Gpr162 mRNA; set-up: method as in PMID 24937127; conditions: streptozotocin-treated rats; cited from earlier work
PC12 cells = test system: PC12 cells; set-up: method as in PMID 21855138; conditions: cited from earlier work
Text: However, much earlier, a fragment of the CART peptide was identified in extracts of sheep hypothalamus.[2] CART was later found to be expressed also in pancreatic islet cells and in nerve fibers innervating the islets.[3]^,[4]^,[5] […] Among them is the effect of CART on islet hormone secretion fr ...

KATO III cells = conditions: KATOIII cells; cited from earlier work
Text: When studying neuropathic pain, Yosten et al.[11] found GPR160 to be necessary for CARTp-mediated cell activation in cell culture. […] Information on GPR160 is scarce, but it has been reported to be a potential marker for prostate cancer,[24] where it is involved in apoptosis and cell-cycle arrest.[25] […] Recently, the notion of GPR160 being the ...

CART receptor = conditions: cited from earlier work
Text: However, much earlier, a fragment of the CART peptide was identified in extracts of sheep hypothalamus.[2] CART was later found to be expressed also in pancreatic islet cells and in nerve fibers innervating the islets.[3]^,[4]^,[5] […] Since then, multiple biological effects of CART have been established.[4]^,[7] Among them is the effect of CART on islet hormone secretion fr ...

INS-1 832/13 cells = experiment: Radioactive binding of 125I-CARTp55-102 to INS-1 832/13 cells; set-up: species or system rat
Protocol: ^125I was incorporated into the meta-position of tyrosine side chains of CARTp55-102 using oxidative iodination. 20 μL of a 300 mM phosphate buffer (pH 7.4) was used to resuspend 1 nmol of the CARTp55-102 peptide, after which 0.4 mCi ^125I (NEZ033A, PerkinElmer, Waltham, MA) was added. A volume of 30 μL 3 mg/mL Chloramine-T in phosphate buffer was added gradually while stirring over 6 min, and the reaction was quenched by adding 400 μL H2O with 0.1% trifluoroacetic acid (TFA). The radiolabeled peptide was purified by reversed-phase HPLC on a C18 column and […]. Elution fractions of 1 mL were collected and it was determined where the radiolabeled peptide eluted by measuring γ radiation intensity on a PerkinElmer 2470 Automatic Gamma Counter (PerkinElmer).
INS-1 cells were seeded to 24-well plates and transfected with Gpr162 siRNA (or control siRNA). Two days after transfection cells were assayed for competition binding for 3 h at 4°C using 10–15 p.m. ^125I CARTp55-102 or unlabeled CARTp55-102 in 0.4 mL of 50 mM HEPES buffer (pH7.4 supplemented with 1 mM CaCl2, 5 mM MgCl2 and 0.5% (w/v) bovine serum albumin). After incubation cells were washed two times in binding buffer supplemented with 0.5 M NaCl at 4°C. Non-specific binding was determined as the binding in the presence of 0.1μM unlabeled CARTp55-102.

## CN(N=O)C(=O)N[C@H]1C(O)O[C@H](CO)[C@@H](O)[C@@H]1O (mixture of isomers) [streptozotocin]
Gpr162 mRNA
  Gpr162 mRNA expression, brain: increased
  Gpr162 mRNA expression, right ventricle of the heart and kidney: reduced Gpr162 mRNA expression

## Cc1c2oc3c(C)ccc(C(=O)N[C@@H]4C(=O)N[C@H](C(C)C)C(=O)N5CCC[C@H]5C(=O)N(C)CC(=O)N(C)[C@@H](C(C)C)C(=O)O[C@@H]4C)c3nc-2c(C(=O)N[C@@H]2C(=O)N[C@H](C(C)C)C(=O)N3CCC[C@H]3C(=O)N(C)CC(=O)N(C)[C@@H](C(C)C)C(=O)O[C@@H]2C)c(N)c1=O [actinomycin D] (I: T[dV]P[Sar][NMeV] / II: T[dV]P[Sar][NMeV]; ester I:1-I:C, II:1-II:C; linker I:N-II:N via Actinocin(9to1))
PC12 cells
  Effect on (radiolabeled) CART binding: inhibited

## C[C@@H]1C[C@@H]([C@H](O)CC2CC(=O)NC(=O)C2)C(=O)[C@@H](C)C1 [cycloheximide]
PC12 cells
  Effect on (radiolabeled) CART binding: inhibited

## C-peptide
KATO III cells
  Effect of GPR160 on C-peptide-induced cFOS expression: GPR160 has no effect on C-peptide-induced cFOS expression

## PACAP6-38: CART receptor antagonist (FTDSYSRYRKQMAVKKYLAAVLGKRYKQRVKNK; ends and bridges not checked; UniProt P18509 137-169, looked up, fragment)
CART receptor
  CART receptor antagonism: acts as a CART receptor antagonist

## ^125I-CARTp55-102: ^125I was incorporated into the meta-position of tyrosine side chains of CARTp55-102 using oxidative iodination (IPIYEKKYGQVPMCDAGEQCAVRKGARIGKLCDCPRGTSCNSFLLKCL; ends and bridges not checked; also: 125I in meta-position of tyrosine side chains)
INS-1 832/13 cells; Gpr162 KD vs negative control, 3 h at 4°C, 2 days after transfection, n = 3, p < 0.05
  Binding of 125I-CARTp55-102 after Gpr162 siRNA/KD: binds to a lower extent to Gpr162 KD INS-1 832/13 cells; also recorded: the degree of binding was lower in cells treated with Gpr162 siRNA
INS-1 832/13 cells; competition binding 3 h at 4°C, 50 mM HEPES pH7.4, non-specific with 0.1μM unlabeled CARTp55-102, n = 3
  Binding of 125I-CARTp55-102 to cells: binds to INS-1 832/13 cells

## pertussis toxin
CART receptor
  CARTp-mediated phosphorylation of ERK: inhibited

## radiolabeled CART peptide: radiolabeled CART of cited earlier studies in AtT20 and PC12 cells (IPIYEKKYGQVPMCDAGEQCAVRKGARIGKLCDCPRGTSCNSFLLKCL; ends and bridges not checked; also: 125I in meta-position of tyrosine side chains)
PC12 cells
  Specific binding in PC12 cells: high-affinity-specific binding in PC12 cells

Reference: publication PMC10709007, “GPR162 is a beta cell CART receptor” (iScience, 2023)
